Series [1] has as its system Vancomycin-intermediate S. aureus 03 (VISA03). As to the kind of experiment: microbe, parasite or virus in culture. Particulars: Vancomycin-intermediate 03 (VISA03, 16 h). The format is cell-based, Staphylococcus aureus. As for the experimental part: (§1) The antibacterial activities of peptides were determined by the standard broth microdilution method according to the guidelines of the Clinical and Laboratory Standards Institute (CLSI). Briefly, E. coli ATCC 25922 were incubated in MHB, and E. faecium BCRC 15B0132, VISA and VRSA strains were incubated in TSB overnight at 37 °C. The cell cultures were regrown to the mid-log phase and subsequently diluted to a final concentration of 5 × 10^5 CFU/mL. The 1 µL peptides or antibiotic were loaded into each well at the final concentration of 64, 32, 16, 8, 4, 2, 1, and 0.5 µg/mL, then loaded 99 µL diluted microbes into each well of polypropylene 96-well plate. After 16 h of incubation at 37 °C, the turbidity at OD600 was measured by the microplate reader. The minimal inhibitory concentration (MIC) value was defined as the lowest concentration of peptide or antibiotic, which inhibited the 90% visible growth of bacteria. All experiments were repeated three times independently.

The test system of series [2] is Vancomycin-intermediate S. aureus 01 (VISA01). Description: microbe, parasite or virus in culture. In kind it is cell-based, Staphylococcus aureus. Particulars: Vancomycin-intermediate 01 (VISA01, 16 h). As for the experimental part: as §1
Series [3] has as its system Vancomycin-intermediate S. aureus 02 (VISA02). As to the kind of experiment: microbe, parasite or virus in culture. In kind it is cell-based, Staphylococcus aureus. Particulars: Vancomycin-intermediate 02 (VISA02, 16 h). As for the experimental part: as §1
Series [4] concerns VRE, VISA, VRSA and E. coli strains. As to the kind of experiment: Checkerboard assay, summary statements of the text over the strain panel. The format is cell-based. Particulars: peptide at ¼ ×MIC combined with vancomycin, all strains studied. The procedure:
The synergistic effects of peptides in combination with vancomycin were investigated by checkerboard assay with slight modification. The peptides were fixed concentration at ¼ × MIC, then in combination with antibiotics at various concentrations in each well of 96-well plate. Then the peptide/antibiotic were mixed with inoculum (5 × 10^5 CFU/mL) and incubated at 37 °C for 16 h. The fractional inhibitory concentration (FIC) index was calculated as follows: FIC index = (MIC of drug A in combination/MIC of drug A alone) + (MIC of drug B in combination/MIC of drug B alone). An FIC index of ≤ 0.5 was defined as synergy, indifference was defined as an FIC index of 0.5 < FICI ≤ 4, antagonism was defined as an FIC index of > 4. The experiments were performed in triplicate.

A further series has as its system human fibroblasts (HFW). Particulars: peptide >25 µg/mL; cited from earlier work.
The conditions of series [5]: POPC:POPG (3:1, mol/mol) and POPC:LPS (4:1, mol/mol) LUVs; cited from earlier work. From the text: Dathe and coauthors used POPC:LPS as model prokaryotic membranes to study peptide activity against E. coli and the role of LPS [20]. Previously, we have evaluated the membrane-permeability of P-113 and its derivatives by measuring the release of calcein from various phospholipid vesicles such as POPC:POPG (3:1, mol/mol) LUVs (mimic the anionic bacterial membrane) and POPC:LPS (4:1, mol/mol) LUVs (served as surrogates of Gram-negative bacterial membranes that contain LPS). […] Nal- ...

For series [6], the system named is E. faecium BCRC 15B0132 (VRE). As to the kind of experiment: microbe, parasite or virus in culture. In kind it is cell-based, Enterococcus faecium. Particulars: BCRC 15, 16 h. As for the experimental part:
as §1

Series [7] deals with E. coli ATCC 25922. As to the kind of experiment: microbe, parasite or virus in culture. The format is cell-based, Escherichia coli. Particulars: ATCC 25922, 16 h. The procedure: as §1
In series [8] the test system is E. coli ATCC 25922. Description: Uptake of BODIPY-labeled vancomycin, confocal laser scanning microscopy. In kind it is cell-based, Escherichia coli. Particulars: E. coli 10^7 CFU/mL, 0.5 ×MIC peptide 30 min at 37 °C, then BODIPY-labeled vancomycin (2 μg/mL) 30 min; mean fluorescence intensity. The procedure: (§2) The fluorescence experiments were performed with slight modification as described previously. Briefly, the bacteria (10^7 CFU/mL) were incubated with 0.5 ×MIC antimicrobial peptides for 30 min and then treated with BODIPY-labeled vancomycin (2 μg/mL) for 30 min. Samples treated with BODIPY-labeled vancomycin only served as a control. After incubation, bacteria were centrifuged at 8000× g for 5 min, washed three times with PBS to remove unbinding fluorescence dye, and resuspended by PBS. The resuspended solution were loaded on the glass slides (Polysine™, Thermo Fisher Scientific, Waltham, MA, USA) and visualized under confocal laser scanning microscope (LSM 510 META, Carl Zeiss, Jena, Thüringen, Germany) equipped with a 64× oil objective lens (Carl Zeiss, Jena, Thüringen, Germany).

Series [9] concerns Vancomycin-resistant S. aureus 03 (VRSA03). As to the kind of experiment: microbe, parasite or virus in culture. In kind it is cell-based, Staphylococcus aureus. Particulars: VRSA03 (induced from VISA03 by serial passage); CLSI broth microdilution, TSB, 5 × 10^5 CFU/mL, 16 h, 37 °C; triplicate. As for the experimental part: (§3) For the purpose of inducing vancomycin-resistant Staphylococcus aureus (VRSA), the VISA01, VISA02, and VISA03 bacteria were incubated overnight in culture medium, and transferring 50 µL of bacteria to 5 mL of fresh medium containing 2 μg/mL of vancomycin then incubated overnight. The bacteria were transferred to new tube with doubling vancomycin concentration and then incubated overnight again. The concentration of vancomycin during serial passage was 2, 4, 8, 16, and 32 µg/mL. The procedure was repeated until meeting the final concentration of 32 µg/mL. After serial passage, the cell resistance was confirmed by using an MIC assay.
as §1
Background: In broth dilution the organism is exposed to a series of concentrations in liquid medium.

In series [10] the test system is Vancomycin-resistant S. aureus 02 (VRSA02). As to the kind of experiment: microbe, parasite or virus in culture. The format is cell-based, Staphylococcus aureus. Particulars: VRSA02 (induced from VISA02 by serial passage); CLSI broth microdilution, TSB, 5 × 10^5 CFU/mL, 16 h, 37 °C; triplicate. As for the experimental part: as §3, §1
In series [11] the test system is Vancomycin-resistant S. aureus 01 (VRSA01). As to the kind of experiment: microbe, parasite or virus in culture. Particulars: VRSA01 (induced from VISA01 by serial passage); CLSI broth microdilution, TSB, 5 × 10^5 CFU/mL, 16 h, 37 °C; triplicate. In kind it is cell-based, Staphylococcus aureus. The procedure:
as §3, §1

A further series has as its system E. faecium BCRC 15B0132. Description: Uptake of BODIPY-labeled vancomycin, confocal laser scanning microscopy. The format is cell-based, Enterococcus faecium. Particulars: VRE 10^7 CFU/mL, 0.5 ×MIC peptide 30 min at 37 °C, then BODIPY-labeled vancomycin (2 μg/mL) 30 min; mean fluorescence intensity. As for the experimental part: as §2
Series [12] relates to E. faecium BCRC 15B0132 (VRE). Description: Time killing assay. In kind it is cell-based, Enterococcus faecium. Particulars: 5 × 10^5 CFU/mL, 1 × MIC, 0.5-24 h, 37 °C, triplicate. As for the experimental part: (§4) The bactericidal activities of vancomycin, P-113, Phe-P-113, Bip-P-113, Dip-P-113, and Nal-P-113 against E. faecium BCRC 15B0132 (VRE) and E. coli ATCC 25922 were assessed by the time-kill analysis. The cells were grown overnight in TSB or MHB at 37 °C with shaking, and then fresh TSB or MHB was inoculated for growth to mid-logarithmic phase. Bacteria (5 × 10^5 CFU/mL) were treated with 1 × MIC vancomycin, P-113, Phe-P-113, Bip-P-113, Dip-P-113, and Nal-P-113 for 0.5, 1, 2, 4, 6, 10, and 24 h at 37 °C. Bacteria without peptides and vancomycin served as a control. Aliquots were removed at each time points, and 10-fold serial dilutions of the aliquot were plated onto the Müller-Hinton agar. The numbers of CFU were counted after 24 h of incubation at 37 °C. The detection limit for the colony counts was 2log10 CFU/mL.

In series [13] the test system is VRE, VISA, VRSA, and E. coli strains. As to the kind of experiment: microbe, parasite or virus in culture. In kind it is cell-based. Particulars: all strains studied (VRE, VISA 01-03, VRSA 01-03, E. coli), Table 2. As for the experimental part: as §1
Series [14] relates to E. coli ATCC 25922. Description: Time killing assay. Particulars: E. coli ATCC 25922, 5 × 10^5 CFU/mL, 1 × MIC, 0.5-24 h, 37 °C; triplicate. The format is cell-based, Escherichia coli. As for the experimental part:
as §4

In another series the test system is Gram-negative bacteria. Particulars: cited from earlier work. From the text: CLP-19 was derived from the core domain of Limulus anti-LPS factor (LALF; amino acids 31–52) with a sequence of ([…]) and a head to tail disulfide bond. It is likely that the positive charges of CLP-19 can interact with the negative charges of LPS and the hydrophobic part of CLP-19 can bind to the f ...

≈ marks a conversion by molar mass, not a printed value. Positions of bridges follow the written chain, without caps; N, C: chain ends. Non-standard residues stand in square brackets, D forms with d. Residues, ends and D or L forms follow the SMILES beside them. No end group written: not given here. Dip = N[C@H](C(=O)O)C(c1ccccc1)c1ccccc1; 2Nal = N[C@@H](Cc1ccc2ccccc2c1)C(=O)O

Turning to `CC(=O)N[C@@H](C)C(=O)N[C@@H](CCCCN)C(=O)N[C@@H](CCCNC(=N)N)C(=O)N[C@H](C(=O)N[C@H](C(=O)NCC(=O)N[C@@H](Cc1ccc(O)cc1)C(=O)N[C@@H](CCCCN)C(=O)N[C@@H](CCCNC(=N)N)C(=O)N[C@@H](CCCCN)C(=O)N[C@@H](Cc1ccccc1)C(=O)N[C@H](C(N)=O)C(c1ccccc1)c1ccccc1)C(c1ccccc1)c1ccccc1)C(c1ccccc1)c1ccccc1` [Dip-P-113] (Ac-AKR[Dip][Dip]GYKRKF[Dip]-NH2), the MIC worked out at 16 µg/mL (≈ 8.58 µM) in [1]; 16 µg/mL (≈ 8.58 µM) in series [2]; 16 µg/mL (≈ 8.58 µM) in series [3]; 4 µg/mL (≈ 2.15 µM) in series [6]; 64 µg/mL (≈ 34.3 µM) against E. coli ATCC 25922 [7]; 32 µg/mL (≈ 17.2 µM) in [9]. Further, the MIC in series [10] and in series [11] was 32 µg/mL (≈ 17.2 µM) in each case. The “synergy with vancomycin (interpretation of FICI)” value in series [4] is “synergistic effects against VRE, VRSA 02, and E. coli”. For the same compound, the “cell death (MTT)” value in the series on human fibroblasts (HFW) was 10–20%. In series [5], the “calcein leakage from LUVs” value was “dose-dependent calcein leakage”. For the same compound, the “entry of BODIPY-labeled vancomycin into the bacteria (rank order)” value with E. coli ATCC 25922 [8] is “Bip-P-113 > Nal-P-113 > Dip-P-113 > Phe-P-113 = P-113”; with E. faecium BCRC 15B0132, “Bip-P-113 = Nal-P-113 > Dip-P-113 > Phe-P-113 = P-113”. In addition, the killing kinetics result in [12] is listed as “rapid bactericidal activity”.

In the case of `CC(=O)N[C@@H](C)C(=O)N[C@@H](CCCCN)C(=O)N[C@@H](CCCNC(=N)N)C(=O)N[C@@H](Cc1ccc2ccccc2c1)C(=O)N[C@@H](Cc1ccc2ccccc2c1)C(=O)NCC(=O)N[C@@H](Cc1ccc(O)cc1)C(=O)N[C@@H](CCCCN)C(=O)N[C@@H](CCCNC(=N)N)C(=O)N[C@@H](CCCCN)C(=O)N[C@@H](Cc1ccccc1)C(=O)N[C@@H](Cc1ccc2ccccc2c1)C(N)=O` [Nal-P-113] (Ac-AKR[2Nal][2Nal]GYKRKF[2Nal]-NH2), in series [13], the “MICs against these bacterial strains” value was “best MICs”. Also, the MIC is 8 µg/mL (≈ 4.48 µM) in [1]; 8 µg/mL (≈ 4.48 µM) in series [2]; 8 µg/mL (≈ 4.48 µM) in series [3]; 4 µg/mL (≈ 2.24 µM) in series [6]; 32 µg/mL (≈ 17.9 µM) with E. coli ATCC 25922 [7]; 16 µg/mL (≈ 8.96 µM) in series [9]. Also, the MIC in [10] and in [11] was 8 µg/mL (≈ 4.48 µM) each time. In addition, the “synergy with vancomycin (interpretation of FICI)” value in [4] is “synergistic effects against VRE, VISA 03, VRSA 01, VRSA 02, VRSA 03, and E. coli”. Moreover, the “cell death (MTT)” value in the series with human fibroblasts (HFW) was 10–20%. In addition, the “calcein leakage from LUVs” value in series [5] is listed as “dose-dependent calcein leakage”. Moreover, the “entry of BODIPY-labeled vancomycin into the bacteria (rank order)” value is listed as “Bip-P-113 > Nal-P-113 > Dip-P-113 > Phe-P-113 = P-113” in the series with E. coli ATCC 25922 [8] and “Bip-P-113 = Nal-P-113 > Dip-P-113 > Phe-P-113 = P-113” in the series on E. faecium BCRC 15B0132. Further, the killing kinetics entry was “fastest bactericidal activity” in the series on E. coli ATCC 25922 [14] and “rapid bactericidal activity” in series [12].

As to “CHYRIKPTFRRLKWKYKGKFWC (disulfide 1-22 (inferred)) [CLP-19, antimicrobial peptide derived from the core domain of Limulus anti-LPS factor, with a disulfide bond]”, the “antibiotic-induced release of LPS” value with Gram-negative bacteria is recorded as “reduce antibiotic-induced release of LPS”.

The values are drawn from publication PMC7369893, “Antimicrobial Peptides Display Strong Synergy with Vancomycin Against Vancomycin-Resistant E. faecium, S. aureus, and Wild-Type E. coli” (International Journal of Molecular Sciences, 2020).
